This is an account of results in PMC3445262 (International immunopharmacology, 2011).

Experiment [1] addresses CB2 W194A mutant receptor in HEK293 cells (Homo sapiens, UniProt P34972, W194A). Format: cell-based.
Experiment [2] has as its target CB2 W194Y mutant receptor in HEK293 cells (Homo sapiens, UniProt P34972, W194Y). The experiment is classed as cell-based.
In experiment [3] the target is CB2 W194F mutant receptor in HEK293 cells (Homo sapiens, UniProt P34972, W194F). Format: cell-based.
Sequence of CB2 W194F mutant receptor in HEK293 cells (P34972 whole entry W194F): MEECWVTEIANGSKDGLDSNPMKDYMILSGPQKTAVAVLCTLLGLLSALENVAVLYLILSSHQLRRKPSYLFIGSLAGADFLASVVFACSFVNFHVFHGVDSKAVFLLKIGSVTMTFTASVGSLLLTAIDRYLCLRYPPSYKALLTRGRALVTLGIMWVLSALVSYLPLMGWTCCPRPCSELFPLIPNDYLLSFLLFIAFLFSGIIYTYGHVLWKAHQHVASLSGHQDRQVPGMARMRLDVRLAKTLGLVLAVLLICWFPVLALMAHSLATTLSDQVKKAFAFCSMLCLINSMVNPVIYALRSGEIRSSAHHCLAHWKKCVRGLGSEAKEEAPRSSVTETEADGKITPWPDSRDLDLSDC
The target of experiment [4] is CB2 WT receptor in HEK293 cells (Homo sapiens, UniProt P34972). The experiment is classed as cell-based.
Sequence of CB2 WT receptor in HEK293 cells (P34972 whole entry): as the sequence (P34972 whole entry W194F) above, with F194W counted along it
The target in experiment [5] is CB2 receptor mutant W5.43(194)Y (Homo sapiens, UniProt P34972, W194Y). Format: binding. Particulars: W5.43(194)Y vs CB2 WT.
Sequence of CB2 receptor mutant W5.43(194)Y (P34972 whole entry W194Y): as the sequence (P34972 whole entry W194F) above, with F194Y counted along it
In experiment [6] the test system is CB1 W5.43(280)A. Particulars: cited from earlier work.
For experiment [7], the system named is CB1 W5.43(280)A. To be noted: cited from earlier work. The source holds these as a separate data set.

Sequence of CB2 W194Y mutant receptor in HEK293 cells (P34972 whole entry W194Y): as the sequence (P34972 whole entry W194F) above, with F194Y counted along it
Sequence of CB2 W194A mutant receptor in HEK293 cells (P34972 whole entry W194A): as the sequence (P34972 whole entry W194F) above, with F194A counted along it

For orientation: EC50 means the concentration that produces a half-maximal response. Lower therefore signals higher potency in that assay. Take `C=C[C@@]1(C)CC(=O)[C@]2(O)[C@@]3(C)[C@@H](O)CCC(C)(C)[C@@H]3[C@H](O)[C@H](OC(C)=O)[C@@]2(C)O1` [Forskolin, forskolin]: the EC50 in experiment [1] came out at 2420 nM; in experiment [2] it was 2020 nM; in experiment [3], 1810 nM; in experiment [4], 1320 nM.

Take `CCCCCCC(C)(C)c1ccc([C@@H]2C[C@H](O)CC[C@H]2CCCO)c(O)c1` [CP55940]: in experiment [5], the “Reduction of binding affinity by W5.43(194)Y mutation compared with wild-type” value is recorded as “no effect”.

With `Cc1c(C(=O)c2cccc3ccccc23)c2cccc3c2n1[C@H](CN1CCOCC1)CO3` [WIN55212-2], the “Reduction of WIN55212-2 stimulated GTPγS binding by CB1 W5.43(280)A mutation” value in experiment [6] is 245 fold. For the same compound, the “Reduction of binding by CB1 W5.43(280)A mutation” value in experiment [7] is 16.8 fold.

As for SR144528, in experiment [5], the “Reduction of binding affinity by W5.43(194)Y mutation compared with wild-type” value came out at 5 fold.
